According to patent US4977275A, “Pyrrole derivatives” (SS Pharmaceutical Co., Ltd., priority 1988, dated 1990):
In brackets after ≈: the same amount, converted by molar mass.

Experiments:
Format in all cases: cell-based
[1] = system: Bacillus subtilis ATCC 6633; assay: antimicrobial activity, minimum inhibitory concentration; settings: ATCC6633
Candida albicans Yu-1200 = assay: as above; settings: YU1200
[2] = system: Debaryomyces kloeckeri IFO 0015; assay: as above; settings: IFO0015
[3] = system: Staphylococcus aureus FDA 209P; assay: as above; settings: FDA209P
[4] = system: Saccharomyces cerevisiae ATCC 9763; assay: as above; settings: ATCC9763
[5] = system: Helminthosporium sesamum IAM 5012; assay: as above; settings: IAM5012
[6] = system: Candida albicans NHL 4019; assay: as above; settings: NHL4019
[7] = system: Piricularia oryzae IAM 5016; assay: microbe, parasite or virus in culture; settings: read-out: Minimum inhibitory concentration (MIC)

Row | Compound | MIC [1] [µg/mL] | MIC (Candida albicans Yu-1200) [µg/mL] | MIC [2] [µg/mL] | MIC [3] [µg/mL] | MIC [4] [µg/mL] | MIC [5] [µg/mL] | MIC [6] [µg/mL] | MIC [7] [µg/mL]
1 | CCCCCCC(=O)Oc1ccc(F)cc1C(=O)c1[nH]c(Br)c(Br)c1Br [Compound 2, 2-(2-Heptanoyloxy-5-fluorobenzoyl)-3,4,5-tribromopyrrole] | < 0.2 | 12.5 (≈ 22.6 µM) | 12.5 (≈ 22.6 µM) | < 0.2 | 12.5 (≈ 22.6 µM) | 6.25 (≈ 11.3 µM) | 12.5 (≈ 22.6 µM) | < 0.2
2 | CCCCCCC(=O)Oc1ccccc1C(=O)c1[nH]c(Cl)c(Cl)c1I [Compound 6, 2-(2-heptanoyloxybenzoyl)-3-iodo-4,5-dichloropyrrole] | 0.39 (≈ 0.789 µM) | 12.5 (≈ 25.3 µM) | 12.5 (≈ 25.3 µM) | 0.39 (≈ 0.789 µM) | 12.5 (≈ 25.3 µM) | 6.25 (≈ 12.6 µM) | 12.5 (≈ 25.3 µM) | < 0.2
3 | O=C(CCCl)Oc1ccccc1C(=O)c1[nH]c(Cl)c(Cl)c1I [Compound 9, 2-[2-(3-Chloropropionyloxy)benzoyl]-3-iodo-4,5-dichloropyrrole] | < 0.2 | 6.25 (≈ 13.2 µM) | 12.5 (≈ 26.5 µM) | < 0.2 | 12.5 (≈ 26.5 µM) | 6.25 (≈ 13.2 µM) | 6.25 (≈ 13.2 µM) | < 0.2
